{"source": "patent EP2488529B1", "about": "“Spirocyclic derivatives as histone deacetylase inhibitors” (DAC S.r.l., priority 2009, dated 2011)", "key": {"A549": {"system": "A549", "test": "Cell growth, CellTiter-Glo Luminescent Cell Viability Assay (antiproliferative assay)", "type": "cell-based", "details": "Homo sapiens; A549 cells, incubated for 72 h", "excerpt": "(§1) CellTiter-Glo® Luminescent Cell Viability Assay (Promega) is a homogeneous method of determining the number of viable cells in culture based on quantitation of the present ATP, which indicates the presence of metabolically active cells. The homogeneous assay procedure involves addition of a single reagent (CellTiter-Glo® Reagent) directly to the cells, which leads to cell lysis and generation of a luminescent signal proportional to the amount of the ATP and the number of cells present in culture. The assay relies on the properties of a proprietary thermostable luciferase (Ultra-Glo® recombinant luciferase), which generates a luminescent signal. K562, A549, and HCT-116 cells, in exponential growth, were incubated for 72 h with different concentrations of the inhibitors. After 72 h, a volume of CellTiter-Glo® Reagent equal to the volume of cell culture medium was added. The content was mixed for 2 min to induce cell lysis. The luminescence was recorded after further 10 min at RT in order to obtain a stable luminescent signal.\n(§2) The IC50 was calculated using GraphPad Software."}, "K562": {"system": "K562", "test": "Cell growth, CellTiter-Glo Luminescent Cell Viability Assay (antiproliferative assay)", "type": "cell-based", "details": "Homo sapiens; K562 cells, incubated for 72 h", "excerpt": "as §1, §2"}, "HCT-116": {"system": "HCT-116", "test": "Cell growth, CellTiter-Glo Luminescent Cell Viability Assay (antiproliferative assay)", "type": "cell-based", "details": "Homo sapiens; HCT-116 cells, incubated for 72 h; read-out: HCT116 IC50", "excerpt": "as §1, §2"}, "HDAC": {"biological_target": "HDAC", "test": "Assay of enzyme inhibition of HDAC (BIOMOL kit, fluorescence)", "type": "biochemical", "details": "nuclear fraction of Hela cells; substrate 200 µM; 15 min at RT", "procedure": "The in-vitro activity of HDAC inhibitors was assayed using a BIOMOL Kit, according to the instructions from the manufacturer (Biomolecular Research Laborator). 15 µl of 30 x diluted nuclear fraction of Hela cells, was diluted to 50 µl with the assay buffer containing the HDAC inhibitor and the substrate (lysine with acetylated amino group on the side chain) at a concentration of 200 µM. The samples were incubated for 15 min at RT and then exposed to a developer (10 min at RT). In this last step a fluorophore was produced, whose fluorescence was measured using an excitation wavelength of 355 nm and an emission at 460 nm. The IC50 was calculated using GraphPad Software."}}}
{"smiles": "O=C(/C=C/c1ccc2c(c1)C(=O)CC1(CCCN(C(=O)c3ccccc3)CC1)O2)NO", "note": "(racemic) [Example 25, (±)-(E)-3-[1'-Benzoyl-4-oxo-spiro(chromane-2,4'-azepane)-6-yl]-N-hydroxy-acrylamide]", "values": [{"measurement": "IC50", "setting": "A549", "result": "≥ 3000", "unit": "nM"}, {"measurement": "IC50", "setting": "K562", "result": "1000 to 3000", "unit": "nM"}, {"measurement": "IC50", "setting": "HCT-116", "result": "≤ 1000", "unit": "nM"}, {"measurement": "IC50", "setting": "HDAC", "result": "100 to 1000", "unit": "nM"}]}
{"smiles": "CN1CCCC2(CC1)CC(=O)c1cc(/C=C/C(=O)NO)ccc1O2", "note": "(racemic) [Example 26, (±)-(E)-3-[1'-Methyl-4-oxo-spiro(chromane-2,4'-azepane)-6-yl]-N-hydroxy-acrylamide]", "values": [{"measurement": "IC50", "setting": "A549", "result": "≤ 1000", "unit": "nM"}, {"measurement": "IC50", "setting": "K562", "result": "≤ 1000", "unit": "nM"}, {"measurement": "IC50", "setting": "HCT-116", "result": "≤ 1000", "unit": "nM"}, {"measurement": "IC50", "setting": "HDAC", "result": "100 to 1000", "unit": "nM"}]}
{"smiles": "CCOC(=O)N1CCCC2(CC1)CC(=O)c1cc(/C=C/C(=O)NO)ccc1O2", "note": "(racemic) [Example 27, (±)-(E)-3-[1'-Ethyloxycarbonyl-4-oxo-spiro(chromane-2,4'-azepane)-6-yl]-N-hydroxy-acrylamide]", "values": [{"measurement": "IC50", "setting": "A549", "result": "≥ 3000", "unit": "nM"}, {"measurement": "IC50", "setting": "K562", "result": "1000 to 3000", "unit": "nM"}, {"measurement": "IC50", "setting": "HCT-116", "result": "1000 to 3000", "unit": "nM"}, {"measurement": "IC50", "setting": "HDAC", "result": "100 to 1000", "unit": "nM"}]}
{"smiles": "O=C(/C=C/c1ccc2c(c1)C(=O)CC1(CCCN(CCc3ccccc3)CC1)O2)NO", "note": "(racemic) [Example 28, (±)-(E)-3-[1'-(2-Phenyl-ethyl)-4-oxo-spiro(chromane-2,4'-azepane)-6-yl]-N-hydroxy-acrylamide]", "values": [{"measurement": "IC50", "setting": "A549", "result": "≤ 1000", "unit": "nM"}, {"measurement": "IC50", "setting": "K562", "result": "≤ 1000", "unit": "nM"}, {"measurement": "IC50", "setting": "HCT-116", "result": "≤ 1000", "unit": "nM"}, {"measurement": "IC50", "setting": "HDAC", "result": "≤ 100", "unit": "nM"}]}
{"smiles": "O=C(/C=C/c1ccc2c(c1)C(=O)CC1(CCCN(Cc3ccc(F)cc3)CC1)O2)NO", "note": "(racemic) [Example 29, (±)-(E)-3-[1'-(4-Fluoro-benzyl)-4-oxo-spiro(chromane-2,4'-azepane)-6-yl]-N-hydroxy-acrylamide]", "values": [{"measurement": "IC50", "setting": "A549", "result": "≤ 1000", "unit": "nM"}, {"measurement": "IC50", "setting": "K562", "result": "≤ 1000", "unit": "nM"}, {"measurement": "IC50", "setting": "HCT-116", "result": "≤ 1000", "unit": "nM"}, {"measurement": "IC50", "setting": "HDAC", "result": "100 to 1000", "unit": "nM"}]}
{"smiles": "O=C(/C=C/c1ccc2c(c1)C(=O)NC1(CCCNC1)O2)NO", "note": "(racemic) [Example 39, (±)-(E)-3-{3,4-Dihydro-4-oxo-spiro[2H-(1,3)-benzoxazine-2,3'-piperidin]-6-yl}-N-hydroxy-acrylamide]", "values": [{"measurement": "IC50", "setting": "A549", "result": "≥ 3000", "unit": "nM"}, {"measurement": "IC50", "setting": "K562", "result": "1000 to 3000", "unit": "nM"}, {"measurement": "IC50", "setting": "HCT-116", "result": "1000 to 3000", "unit": "nM"}, {"measurement": "IC50", "setting": "HDAC", "result": "100 to 1000", "unit": "nM"}]}
{"smiles": "O=C(/C=C/c1ccc2c(c1)C(=O)NC1(CCCN(Cc3ccccc3)C1)O2)NO", "note": "(racemic) [Example 40, (±)-(E)-3-{1'-Benzyl-3,4-dihydro-4-oxo-spiro[2H-(1,3)-benzoxazine-2,3'-piperidin]-6-yl}-N-hydroxy-acrylamide]", "values": [{"measurement": "IC50", "setting": "A549", "result": "≤ 1000", "unit": "nM"}, {"measurement": "IC50", "setting": "K562", "result": "≤ 1000", "unit": "nM"}, {"measurement": "IC50", "setting": "HCT-116", "result": "≤ 1000", "unit": "nM"}, {"measurement": "IC50", "setting": "HDAC", "result": "≤ 100", "unit": "nM"}]}
{"smiles": "CN1CCCC2(C1)NC(=O)c1cc(/C=C/C(=O)NO)ccc1O2", "note": "(racemic) [Example 41, (±)-(E)-3-{1'-Methyl-3,4-dihydro-4-oxo-spiro[2H-(1,3)-benzoxazine-2,3'-piperidin]-6-yl}-N-hydroxy-acrylamide]", "values": [{"measurement": "IC50", "setting": "A549", "result": "1000 to 3000", "unit": "nM"}, {"measurement": "IC50", "setting": "K562", "result": "≤ 1000", "unit": "nM"}, {"measurement": "IC50", "setting": "HCT-116", "result": "≤ 1000", "unit": "nM"}, {"measurement": "IC50", "setting": "HDAC", "result": "100 to 1000", "unit": "nM"}]}
{"smiles": "O=C(/C=C/c1ccc2c(c1)C(=O)NC1(CCCN(Cc3ccc(F)cc3)C1)O2)NO", "note": "(racemic) [Example 42, (±)-(E)-3-{1'-(4-Fluoro-benzyl)-3,4-dihydro-4-oxo-spiro[2H-(1,3)-benzoxazine-2,3'-piperidin]-6-yl}-N-hydroxy-acrylamide]", "values": [{"measurement": "IC50", "setting": "A549", "result": "1000 to 3000", "unit": "nM"}, {"measurement": "IC50", "setting": "K562", "result": "≤ 1000", "unit": "nM"}, {"measurement": "IC50", "setting": "HCT-116", "result": "≤ 1000", "unit": "nM"}, {"measurement": "IC50", "setting": "HDAC", "result": "100 to 1000", "unit": "nM"}]}
{"smiles": "O=C(/C=C/c1ccc2c(c1)C(=O)NC1(CCCN(CCc3ccccc3)C1)O2)NO", "note": "(racemic) [Example 43, (±)-(E)-3-{1'-(2-Phenyl-ethyl)-3,4-dihydro-4-oxo-spiro[2H-(1,3)-benzoxazine-2,3'-piperidin]-6-yl}-N-hydroxy-acrylamide]", "values": [{"measurement": "IC50", "setting": "A549", "result": "≤ 1000", "unit": "nM"}, {"measurement": "IC50", "setting": "K562", "result": "≤ 1000", "unit": "nM"}, {"measurement": "IC50", "setting": "HCT-116", "result": "≤ 1000", "unit": "nM"}, {"measurement": "IC50", "setting": "HDAC", "result": "≤ 100", "unit": "nM"}]}
{"smiles": "Cn1cc(CN2CCCC3(CC(=O)c4cc(/C=C/C(=O)NO)ccc4O3)C2)c2ccccc21", "note": "(racemic) [Example 45, (±)-(E)-3-[1'-(1-Methyl-1H-indol-3-ylmethyl)-4-oxo-spiro(chromane-2,3'-piperidine)-6-yl]-N-hydroxy-acrylamide]", "values": [{"measurement": "IC50", "setting": "A549", "result": "≤ 1000", "unit": "nM"}, {"measurement": "IC50", "setting": "K562", "result": "≤ 1000", "unit": "nM"}, {"measurement": "IC50", "setting": "HCT-116", "result": "≤ 1000", "unit": "nM"}, {"measurement": "IC50", "setting": "HDAC", "result": "100 to 1000", "unit": "nM"}]}
